Experimental data: patent US20100172865A1, “METHODS OF ENHANCING HAIR GROWTH” (priority 2010, published 2010)
Read-outs that look alike come from different tables or passages of the source.

Experiments:
[1] = tested on: hair loss; settings: clinical studies, taken by mouth; cited from earlier work
[2] = tested on: scalp hair growth; assay: Local application of insulin to the scalp, alone or before other agents, hair growth; format: in vivo, human
Description: Wash scalp with mild shampoo. Avoid using hair conditioners which may coat the bald skin resulting in prevention of the effective absorption of insulin. This is followed by application of oxidant. In our invention, we can use any one of the above described antioxidants, but in this instance we are discussing povidine iodine. […] Allow it to dry, and follow it by application of insulin by a spray or swab repeatedly 2-3 times as it dries.
Apply the Wash dressing on the wound if need be.
Step 4: Apply selected hair growth therapeutic agent, which includes prostaglandin and its derivatives which are already in the market and FDA approved.
We recommend the use of tocotrienols after insulin application so that this therapeutic agent can easily permeate the hair follicle and promote the hair growth.
Apply selected hair growth therapeutic agent using PGF 2α, and analogues.

[3] = tested on: cultured human hair follicles; settings: cited from earlier work; for preventing hair follicles from entering into a catagen-like state, compared with insulin / rates of hair follicle growth compared with 10 micrograms/ml insulin: IGF-I 10 ng/ml, IGF-II 100 ng/ml; for effect on hair follicle growth: in the presence of 10 micrograms/ml insulin
[4] = cited from earlier work
[5] = tested on: hair loss due to chemotherapy; assay: Insulin spray on the scalp during chemotherapy; format: in vivo, human; settings: 3-5 units of insulin diluted in normal saline or ringers lactate, cancer patients
Method: It is this experience that leads us to this invention. […] We also experimented with application of cold pack to the scalp 15 minutes after insulin spray, which caused the constriction of BV and reduced the amount of chemotherapy agent reaching the scalp hair which causes havoc on the hair root cells. These three simple methods reduced the profound loss of scalp hair to chemotherapy toxic effects in cancer patients during chemotherapy treatment. Insulin applied directly to the scalp had preventive effect on hair loss due to chemotherapy.

[6] = Description: If one develops hypoglycemic symptoms due to any number of reasons, drink a sugar drink, eat a candy, or fruit cocktail.
[7] = tested on: wound healing; assay: Local insulin on ulcers, tooth extraction wounds and gums; format: in vivo, human
Description: We have used insulin for more than a decade to enhance the effectiveness of locally injected therapeutic agents specially cancers with chemotherapeutic agents with remarkable results. Our research data also supports that the insulin spray on indolent ulcers anywhere in the body, including the oral (gums) and nasal cavity.

[8] = tested on: MCF-7 human breast cancer cells; settings: MCF-7 cells, insulin plus methotrexate; cited from earlier work
[9] = in the absence of insulin, 0.01-100 ng/ml

Question: With CC(C)(C)NC(=O)[C@H]1CC[C@H]2[C@@H]3CC[C@H]4NC(=O)C=C[C@]4(C)[C@H]3CC[C@]12C [Finasteride] as the molecule, how does the “share of men in whom hair loss stopped” value [1] read?
Answer: 83%

Question: With COc1cc(/C=C/C(=O)CC(=O)/C=C/c2ccc(O)c(OC)c2)ccc1O [curcumin] as the molecule, how does the “use as antioxidant for hair growth after application of insulin” value ([2]; applied after insulin) read?
Answer: used effectively

Question: With IGF-I: Insulin-like growth factor I as the molecule, how does the “preventing hair follicles from entering into a catagen-like state, compared with insulin” value [3] read?
Answer: more potent than insulin

Question: And the “rates of hair follicle growth compared with 10 micrograms/ml insulin” value [3]?
Answer: identical

Question: And the “stimulation of hair follicle growth” value [3, 9]?
Answer: stimulated hair follicle growth in a dose-dependent manner

Question: What about the “concentration stimulating maximum rates of hair follicle growth” value ([3]; in the absence of insulin) of the same molecule?
Answer: 10 ng/mL

Question: What about the “effect on hair follicle growth” value [3] of the same molecule?
Answer: no significant effect

Question: With IGF-II: Insulin-like growth factor II as the molecule, how does the “preventing hair follicles from entering into a catagen-like state, compared with insulin” value [3] read?
Answer: more potent than insulin

Question: What about the “rates of hair follicle growth compared with 10 micrograms/ml insulin” value [3] of the same molecule?
Answer: unable to stimulate hair follicle growth to the same extent as insulin

Question: What about the “stimulation of hair follicle growth” value [3, 9] of the same molecule?
Answer: stimulated hair follicle growth in a dose-dependent manner

Question: And the “concentration stimulating maximum rates of hair follicle growth” value ([3]; in the absence of insulin)?
Answer: 100 ng/mL

Question: What about the “effect on hair follicle growth” value [3] of the same molecule?
Answer: no significant effect

Question: With “Regular (R) humulin or novolin: Short-acting insulin” as the molecule, how does the Duration of action ([4]; in vivo) read?
Answer: 5 to 8 h

Question: What about the Onset of action ([4]; in vivo) of the same molecule?
Answer: 30 to 60 min

Question: And the Peak effect ([4]; short-acting insulin)?
Answer: 2 to 5 h

Question: For “growth hormone: growth hormone (somatotrophin)”, which “influence on hair follicle and hair growth” value ([3]; growth hormone alone) is on record?
Answer: no direct influence

Question: For “insulin: hormone secreted by beta cells in the islets of Langerhans in the pancreas”, which “hair loss during chemotherapy” value [5] is on record?
Answer: reduced the hair loss dramatically

Question: What about the hypoglycemia ([6]; after application of insulin to the scalp) of the same molecule?
Answer: none of our cases developed hypoglycemia

Question: What about the “side effect after application” value ([6]; insulin preparations on the scalp) of the same molecule?
Answer: itching and redness

Question: What about the “darkening of the skin” value ([6]; simple insulin applied to enhance hair growth) of the same molecule?
Answer: did not result in any appreciable darkening of the skin

Question: And the “hair follicle transplant healing and growth” value ([2]; insulin applied with hair follicle transplant, no second agent)?
Answer: rapid wound healing along with uptake and growth of hair follicle transplant

Question: What about the hair growth ([2]; insulin on its own) of the same molecule?
Answer: enhances the hair growth

Question: And the “gum diseases (periodontitis)” value ([7]; insulin and antibiotics such as doxycycline locally on the gums)?
Answer: eliminated gum diseases

Question: What about the “healing after teeth extraction” value ([7]; insulin soaked cotton swabs, 1-3-5 units in normal saline) of the same molecule?
Answer: rapid healing with reduced pain

Question: And the wound healing ([7]; insulin spray on indolent ulcers)?
Answer: accelerated wound healing

Question: What about the “concentration giving maximum rates of hair follicle growth” value ([3]; follicles maintained in medium containing insulin) of the same molecule?
Answer: 10 micrograms/ml

Question: What about the “stimulation of hair follicle growth” value ([3]; over the range of 0.01 to 100 micrograms/ml) of the same molecule?
Answer: stimulated hair follicle growth in a dose-dependent manner

Question: And the “increase of the cytotoxic effect of methotrexate” value [8]?
Answer: up to 10,000 fold
